Values of other authors as cited in patent US20190231888A1, “TEXAPHYRIN AND ANTITUMOR ANTIBIOTIC CONJUGATES” (priority 2016, published 2019).

Settings: intravenous, determined in one study; cited from earlier work

Substance: lutetium texaphyrin
- maximum tolerated dose: 5.2 mg/kg
